In one experiment the test system is U-251. The experiment can be described thus: Cytotoxicity against human U251 cells assessed as growth inhibition after 72 hrs by MTT assay. It counts as functional, cell-based. The conditions noted are these: U-251, 72 h. On the technique in general: Formazan colour is commonly taken as a measure of viable cells.
Experiment [1] relates to HepG2. The experiment can be described thus: Cytotoxicity against human HepG2 cells assessed as growth inhibition after 72 hrs by MTT assay. Format: functional, cell-based. The conditions noted are these: HepG2, 72 h.
The test system of another experiment is MCF7. The experiment can be described thus: Cytotoxicity against human MCF7 cells assessed as growth inhibition after 72 hrs by MTT assay. The conditions noted are these: MCF7, 72 h. Format: functional, cell-based.
A further experiment has as its system HeLa. The experiment can be described thus: Cytotoxicity against human HeLa cells assessed as growth inhibition after 72 hrs by MTT assay. It counts as functional, cell-based.
The test system of a further experiment is HCT-116. As to the kind of experiment: Cytotoxicity against human HCT116 cells assessed as growth inhibition after 72 hrs by MTT assay. Format: functional, cell-based. The conditions noted are these: HCT-116, 72 h.
In experiment [2] the test system is HepG2. As to the kind of experiment: Inhibition of vacuolar H+-ATPase in human HepG2 cells assessed as release of phosphate after 72 hrs by malachite green dye-based spectrophotometric analysis. It counts as cell-based.
Experiment [3] relates to HepG2. The experiment can be described thus: Inhibition of vacuolar H+-ATPase in human HepG2 cells assessed as neutralization of lysosomal pH at 10 to 100 nM after 48 hrs by LysoTracker Red dye-based confocal microscopic analysis. Format: cell-based.

The structures appear in SMILES notation. The source made the active and inactive calls. The calls are words filed in the database; no cut-off is given here.

The IC50 is the point on the concentration scale where inhibition reaches its midpoint.

With `COc1cc2c(O[C@@H]3OC[C@@H](OC)[C@H](OC)[C@H]3O[C@@H]3O[C@H](CO)[C@@H](O)[C@H](O)[C@H]3O)c3c(c(-c4ccc5c(c4)OCO5)c2cc1OC)C(=O)OC3`, the IC50 with U-251, with HepG2 [1], in the experiment with MCF7, in the experiment with HeLa and with HCT-116 was more than 200 nM in each case.

With `COc1cc2c(O[C@@H]3OC[C@@H](OC)[C@H](OC)[C@H]3O[C@@H]3O[C@H](COC(C)=O)[C@@H](OC(C)=O)[C@H](OC(C)=O)[C@H]3OC(C)=O)c3c(c(-c4ccc5c(c4)OCO5)c2cc1OC)C(=O)OC3`, the IC50 turned out to be 101 nM with U-251; 39 nM with HepG2 [1]; 92 nM in the experiment with MCF7; 74 nM in the experiment with HeLa; 82 nM in the experiment on HCT-116. Further, in the experiment with HepG2 [2], the inhibition entry is “Dose-dependent effect”. Besides, the inhibition result in the experiment with HepG2 [3] was “Active”.

For the molecule `COc1cc2c(O[C@@H]3OC[C@@H](OC)[C@H](OC)[C@H]3O)c3c(c(-c4ccc5c(c4)OCO5)c2cc1OC)C(=O)OC3` [CLEISTANTHIN], the half-inhibitory concentration (IC50) with U-251 is 97 nM; in the experiment on HepG2 [1] it was 36 nM; in the experiment on MCF7, 190 nM; with HeLa, 67 nM; in the experiment with HCT-116 it was 31 nM. Moreover, the inhibition result in the experiment on HepG2 [2] is “Dose-dependent effect”. Moreover, in the experiment with HepG2 [3], the inhibition entry was “Active”.

For `CC(=O)O[C@H]1C(=O)[C@@]2(C)[C@H]([C@H](OC(=O)c3ccccc3)[C@]3(O)C[C@H](OC(=O)[C@H](O)[C@@H](NC(=O)c4ccccc4)c4ccccc4)C(C)=C1C3(C)C)[C@]1(OC(C)=O)CO[C@@H]1C[C@@H]2O` [PACLITAXEL], the concentration for half-maximal inhibition (IC50) in the experiment with U-251 came out at 128 nM; in the experiment with HepG2 [1] it was 84 nM; in the experiment with MCF7 it was 45 nM; in the experiment with HeLa it was 96 nM; in the experiment with HCT-116, 69 nM.

(Values after ChEMBL document CHEMBL3297662, “Synthesis and identification of cytotoxic diphyllin glycosides as vacuolar H(+)-ATPase inhibitors” (Eur J Med Chem, 2014).)
